The subject of data set [1] is inflammatory cytokines. The following applies: cited from earlier work.
Data set [2] concerns retina. The note with it: in vivo, po; cited from earlier work.
Data set [3] addresses Pi isoform of glutathione-S-transferase (GSTP1) (Homo sapiens, UniProt P09211). The following applies: in vitro conditions; cited from earlier work.
Data set [4] relates to wet macular degeneration (subfoveal CNV). Briefly: Case report: zeaxanthin pre-loading before verteporfin-laser PDT (Example 1). Format: in vivo, human. From the text: Such a candidate became known to the Applicant, in mid to late 2003. Because of certain personal and business connections, they were contacted by a person, who had been told that (i) […] eyesight was deteriorating rapidly, due to macular degeneration, and (ii) they should take care of any business, financial, legal, and other matters as soon as possible, before […] eyesight became even worse. This person made their plight (and their severe depression, due to the very negative prognosis they had received from an expert) known to the Applicant. In response, the Applicant informed the patient that they (the Applicant) had made a number of charitable donations to support research at the Johns Hopkins School of Medicine, where some of the world's foremost experts in macular degeneration work. […] (the Applicant) offered to see whether they could obtain expedited treatment for the patient, by making some phone calls to people they knew who worked there. The patient accepted that offer, and was seen and treated not long thereafter, by a top expert at the Wilmer Eye Institute, a highly respected eye care and research institute affiliated with Johns Hopkins.
This patient had been taking zeaxanthin for a number of weeks, prior to being examined and treated at the Wilmer Eye Institute. Their dosage was believed to be 20 milligrams per day, from taking two 10 milligram capsules (purchased from ZeaVision LLC) per day, usually with meals. They also took various other vitamin supplements during the course of their treatment, and afterwards.
An adult at the time, was suffering from wet macular degeneration.
At about that time, the patient began taking zeaxanthin supplements. It is believed that their typical daily dosage was 20 milligrams, from two 10 milligram capsules per day, usually taken with meals. The patient is also believed to have taken various other nutritional supplements during the relevant span of time, although their full contents, dosages, and durations are not known.
According to notes created by the ophthalmologist at the Wilmer Institute, obtained by the Applicant with approval from the patient, the patient suffered from subfoveal CNV in their right eye. […] According to the patient, the ophthalmologist advised them that their course of treatment likely would require 5 or 6 verteporfin-laser treatments, over a span of up to about 2 years.
His left eye was similar in appearance but questionable in extent, and there was no proven disease progression. Therefore, the ophthalmologist recommended careful monitoring but no PDT at that time.
Despite that advice, the patient continued taking zeaxanthin.

The subject of data set [5] is wet macular degeneration. Kind of data set: ZeaVision customer survey: zeaxanthin supplements and PDT treatment (Example 2). The class given is in vivo, human. From the text: In the summer of 2004, the assignee company (ZeaVision LLC) began searching for customers who were: (i) taking zeaxanthin supplements they had purchased from ZeaVision, and (ii) had received one or more PDT treatments, for wet macular degeneration. They did this by sending postcards to customers, asking them to contact ZeaVision if they had received PDT treatment. Those customers who responded were briefly interviewed by phone by the customer support staff, who asked questions and filled in a worksheet that had been prepared to help guide the interviews. Most of these patients with age-related eye problems are in their 70's or 80's. They could not always provide exact dates when talking from memory during a phone call, and no efforts were made to check their actual medical records, or to consult with the ophthalmologists who performed their PDT treatments. In addition, nearly all of these patients were taking one or more additional vitamin supplements, such as lutein, Coenzyme Q10, and/or the AREDS formulation (all of which are commonly recommended by friends, relatives, and physicians), and at least one patient (identified as patient one, below) also received a steroid injection as part of their PDT therapy. […] Responses from patients who had been taking zeaxanthin for at least a month prior to a PDT treatment include the following examples: […]

For data set [6] the following is noted: even at very high dosages; cited from earlier work.
Data set [7] relates to poultry. The following applies: compared against preparation of dietary 3R,3′R stereoisomer; test in Spain; cited from earlier work.
Data set [8] concerns vascular endothelial growth factor (VEGF). The following applies: verteporfin-laser treatment; cited from earlier work.
Data set [9] relates to inflammatory chorioretinal diseases. The note with it: in vivo; cited from earlier work.
Setting [10] is: right eye, January 2004, six months after PDT.
The mark [11] stands for this setting: right eye, October 2003, three months after PDT, zeaxanthin 20 mg/day.
Where [12] appears, read: Patient one, ZX from June 2004, first and only PDT about 2 months later, also steroid injection.

Entries after “also recorded” stand apart in the source; their conditions may differ.

Chain of Pi isoform of glutathione-S-transferase (GSTP1) (P09211 whole entry, canonical isoform): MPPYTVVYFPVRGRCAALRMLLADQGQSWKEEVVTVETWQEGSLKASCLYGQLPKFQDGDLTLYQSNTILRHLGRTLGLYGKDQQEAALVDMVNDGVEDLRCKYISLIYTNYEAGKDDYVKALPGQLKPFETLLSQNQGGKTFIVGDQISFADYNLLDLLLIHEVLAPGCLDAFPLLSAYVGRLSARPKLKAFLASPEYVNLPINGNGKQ

With `CC1=C(/C=C/C(C)=C/C=C/C(C)=C/C=C/C=C(C)/C=C/C=C(C)/C=C/C2=C(C)C(=O)[C@@H](O)CC2(C)C)C(C)(C)C[C@H](O)C1=O` [astaxanthin], the “effect on inflammatory and similar responses” value in [1] is “can help reduce inflammatory and similar responses”.

For `CC1=C(/C=C/C(C)=C/C=C/C(C)=C/C=C/C=C(C)/C=C/C=C(C)/C=C/C2=C(C)C(=O)CCC2(C)C)C(C)(C)CCC1=O` [canthaxanthin], in data set [2], the retinal deposition entry is reported as “abnormal retinal deposition”.

Regarding `CC1=C[C@H](O)CC(C)(C)[C@H]1/C=C/C(C)=C/C=C/C(C)=C/C=C/C=C(C)/C=C/C=C(C)/C=C/C1=C(C)C[C@@H](O)CC1(C)C` [lutein, reference compound], in data set [3], the “binding affinity of macular enzymes” value was “will not bind to lutein with any significant affinity”.

Consider `CC1=C(/C=C/C(C)=C/C=C/C(C)=C/C=C/C=C(C)/C=C/C=C(C)/C=C/C2=C(C)C[C@@H](O)CC2(C)C)C(C)(C)C[C@H](O)C1` [zeaxanthin], for which the “findings in the eye not previously treated with PDT” value in [4] (left eye, March 2004, patient taking zeaxanthin, no PDT so far) is recorded as “growth of choroidal neovascularization compared to January 2004”. In addition, the “ophthalmologist's assessment of PDT results, as orally reported by the patient” value in [4] (left eye, three months after PDT of March 2004) is on record as “results were good”. In addition, in data set [4] (setting [10]), the “biomicroscopic findings (subretinal hemorrhage)” value is reported as “clearing of the subretinal hemorrhage that was noted along the inferonasal aspect of the treated area” and the fluorescein angiography result is “still showed some increased staining in the area where the hemorrhage had cleared”. In [4] (right eye, March 2004), the “leakage from CNV” value is reported as “no new leakage from CNV to suggest the need for any treatment”. Also, in data set [4] (setting [11]), the “biomicroscopic findings (subretinal hemorrhage and fluid)” value is reported as “clearing of much of the subretinal hemorrhage along the nasal aspect of the posterior pole with no new subretinal fluid”; the fluorescein angiography result is given as “no fluorescein leakage to suggest the need for any additional treatment at this time except at the inferonasal aspect of the treated area”. The “ophthalmologist's assessment of the PDT results” value in data set [4] (right eye, three months after first PDT, zeaxanthin 20 mg/day) is on record as “much better than expected; also recorded: far better than expected”. In addition, the “need for further PDT sessions (doctor's statement)” value in data set [5] (Patient four, ZX begun before second PDT session, first session without ZX did not stabilize) is recorded as “appeared to not need any more PDT sessions”. Besides, in data set [5] (setting [12]), the “need for further PDT treatments (doctor's statement)” value is “may not need to have any more treatments” and the “results of PDT treatment” value was “results were good”. Also, the “ophthalmologist's assessment of eyes at followup” value in [5] (Patient three, October 2004) is “their eyes had stabilized”. Further, the “doctor's assessment of eyes at followup” value in [5] (Patient three, ZX for some months before second PDT in May 2004, late June 2004) is “their eyes had gotten better, and appeared to be stable”. Also, in data set [5] (Patient two, 10 mg/day ZX from May 2004, four PDT sessions April-October 2004, October 2004), the “vision in PDT-treated left eye” value is 20/30. The “patient's description of their results” value in data set [5] (Patient two, 10 mg/day ZX, October 2004) is recorded as “super-good”. Besides, in data set [5] (Patient two, 10 mg/day ZX, PDT on left eye), the “ophthalmologist's assessment of sight” value was “sight restored and improved”. Moreover, in data set [5] (all patients surveyed), the adverse side effects result is on record as “did not cause any adverse side effects of any sort” and the “interference with efficacy of PDT treatment” value is “did not interfere with the efficacy of PDT treatment”. Besides, in [5] (in at least some patients), the overall benefit result is recorded as “provided at least some benefits”. Also, the “condition of PDT-treated eye (doctor's statement)” value in [5] (parent of respondent OD, PDT on right eye after three months of ZX) was “appeared to be stable”. In data set [5] (several respondents with PDT in one eye only), the “condition of fellow eye with dry macular degeneration (respondents' statements)” value is “remain stable, or in some cases improve”. Besides, the “pathological changes in animal tests” value in data set [6] is “did not cause any pathological changes, of any sort”. In [3], the “binding affinity of macular enzymes” value is given as “relatively high affinity”.

With meso-zeaxanthin, in [7], the “performance as colour additive for poultry” value is “did not perform satisfactorily”.

Turning to verteporfin, the “release of hormones that increase blood vessel growth (VEGF)” value in data set [8] is on record as “stimulates, rather than suppresses”. In addition, the “performance relative to verteporfin treatment of wet macular degeneration” value in data set [9] is “tended to perform better, and more effectively”.

(Values after patent publication US7941211B2, “Preloading with macular pigment to improve photodynamic treatment of retinal vascular disorders” (ZeaVision, LLC., priority 2003, dated 2011).)
